Assay results as given in US20250051327A1, “MALT-1 MODULATORS” (EXSCIENTIA AI LIMITED, priority 2020, published 2025).

Experiments:
[1] = biological target: Recombinant human MALT-1 (amino acids 340-824) (Homo sapiens (Human), UniProt Q9UDY8); experiment: MALT-1 inhibition assay (fluorogenic substrate Ac-LRSR-Rh110-DP); type: biochemical; settings: recombinant human MALT-1, substrate Ac-LRSR-Rh110-DP
Summary of the method: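 Reactions were started with fluorogenic substrate Ac-LRSR-Rh110-DP (10 μM final) against 3 nM enzyme and kept dark at 25° C for 60 minutes. IC50 values came from 4-parameter logistic fits of percent inhibition calculated from relative fluorescence units.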

[2] = system: IL-2 secretion by human effector memory T cells (TEM); experiment: Effector memory T cells IL-2 release assay; type: cell-based; settings: T-cell; human CD4+ effector memory T cells, CD3/CD28 bead stimulation, 24 h; read-out: CD4TC IL2 IC50
Experimental: Effector Memory T Cells IL-2 Release Assay
Test compound-mediated inhibition of NFκB signalling in T cells was assessed by quantification of the IL-2 secretion by human effector memory T cells (TEM) upon treatment and stimulation. Human TEM cells were isolated from buffy coats of healthy donors obtained from the French blood bank. First, peripheral blood mononuclear cells (PBMC) were purified from buffy coats diluted 1:1 with DPBS (Gibco, cat #14190-094) by Pancoll (PAN BIOTECH, cat #P04-60500) density gradient centrifugation at 400×g for 20 minutes. TEM cells were further enriched by negative immuno-magnetic cell sorting using a human CD4+ Effector Memory T Cell Isolation Kit (Miltenyi, cat #130-094-125) according to the manufacturer's instructions. Aliquots of 3×10E6 purified TEM cells were kept frozen in Cryo-SFM medium (PromoCell, cat #C-29912) in gas phase nitrogen until used. Cell purity was verified by flow cytometry analysis of 200 000 PFA-fixed cells previously labelled with monoclonal antibodies anti-CD4-PerCP-Cy5.5 (BD Pharmigen, cat #332772), anti-CD8-V500 (BD Biosciences, cat #561617), anti-CD14-Pacific Blue (Biolegend, cat #325616), anti-CD45 RA-FITC (Biolegend, cat #304106) and anti-CCR7-APC (in CD4+ Effector Memory T Cell Isolation Kit, Miltenyi, cat #130-094-125).
TEM cells were resuspended in complete RPMI medium composed of: RPMI 1640 (Gibco, cat #31870-025), 10% heat inactivated fetal bovine serum (Sigma, cat #F7524), 2 mM GlutaMAX (Gibco, cat #35050-038), 1 mM sodium pyruvate 100× (Gibco, cat #11360-039), 1% MEM non-essential amino acids solution (Gibco, cat #11140-035) and 100 U/mL penicillin, 100 μg/mL streptomycin (Sigma-Aldrich, cat #11074440001). 5,000 cells per well were plated onto flat clear bottom 384 well plates (Corning, cat #3770). 5,000 Dynabeads Human T-Activator CD3/CD28 (Gibco, cat #11132D) were added to each well for cell stimulation. Finally, 10 doses of test compound, originally prepared in DMSO by serial semi-log step dilution, were also added to cells in triplicate wells. Final DMSO concentration in wells was 0.1% in a total volume of 100 μL complete medium. Plates were incubated for 24 h at 37° C. in 5% CO2 atmosphere. After incubation, cell suspensions were centrifuged at 400×g and culture supernatants were recovered and stored at −80° C. Cell viability was assessed by flow cytometry after staining the cells with Fixable Viability Dye eFluor 780 (Invitrogen, cat #65-0865-14). IL-2 levels were determined in cell supernatants using an HTRF human IL-2 detection kit (Cisbio, cat #62HIL02PEH). IL-2 data at the different compound doses were fitted to a 4-parameter logistic curve to determine IC50 values, corresponding to the compound concentration leading to 50% reduction of the maximal IL-2 levels observed in each experiment. Viability data were analysed similarly to exclude cytotoxicity as a cause of IL-2 decrease (see Table 1).

Recombinant human MALT-1 (amino acids 340-824), sequence (Q9UDY8 340-824): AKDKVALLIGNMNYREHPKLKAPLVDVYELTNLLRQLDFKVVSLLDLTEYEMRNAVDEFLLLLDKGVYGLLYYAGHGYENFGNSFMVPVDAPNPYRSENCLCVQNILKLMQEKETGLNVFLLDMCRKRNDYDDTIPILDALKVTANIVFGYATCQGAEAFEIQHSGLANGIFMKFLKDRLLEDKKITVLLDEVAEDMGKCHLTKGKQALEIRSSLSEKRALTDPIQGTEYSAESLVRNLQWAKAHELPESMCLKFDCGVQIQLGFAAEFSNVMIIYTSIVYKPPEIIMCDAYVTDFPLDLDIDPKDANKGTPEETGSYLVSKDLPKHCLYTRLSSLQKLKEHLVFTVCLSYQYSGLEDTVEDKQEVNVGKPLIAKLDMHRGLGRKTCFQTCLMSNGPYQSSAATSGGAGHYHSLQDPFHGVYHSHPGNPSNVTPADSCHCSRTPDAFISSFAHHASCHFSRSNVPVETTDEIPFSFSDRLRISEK

| IC50 [1] [nM] | IC50 [2] [nM] | SMILES |
| --- | --- | --- |
| 53 | 95 | CN(C(=O)[C@H]1CC[S@@](=N)(=O)CC1)[C@@H](c1ccc(N2CCC(C)(C)c3c2cnc2cc(F)nn32)cc1)C(F)(F)F (relative stereo) [CPD0072782] |
| 89 | 175 | COc1ccc2ncc(Nc3ccc([C@H](N(C)C(=O)[C@H]4CC[S@@](=N)(=O)CC4)C(F)(F)F)cc3)c([C@@H](C)OC)c2n1 [CPD0075564] |
| 62 | 216 | CN1C(=O)OC[C@@H]1C(=O)N(C)[C@@H](c1ccc(N2CCCc3c2cnc2cc(Cl)nn32)cc1)C(F)(F)F (relative stereo) [CPD0073570, (4rel-R)-N-[(1S)-1-(4-{4-chloro-2,3,7,10-tetraazatricyclo[7.4.0.0^2,6]trideca-1(9),3,5,7-tetraen-10-yl}phenyl)-2,2,2-trifluoroethyl]-N,3-dimethyl-2-oxo-1,3-oxazolidine-4-carboxamide] |
| 32 | 108 | CN(C(=O)[C@H]1CC[S@@](=N)(=O)CC1)[C@@H](c1ccc(N2CCCc3c2cnc2cc(Cl)nn32)cc1)C(F)(F)F (relative stereo) [CPD0072528, (1rel-s,4rel-S)-N-[(1S)-1-(4-{4-chloro-2,3,7,10-tetraazatricyclo[7.4.0.0^2,6]trideca-1(9),3,5,7-tetraen-10-yl}phenyl)-2,2,2-trifluoroethyl]-1-imino-N-methyl-1-oxo-1λ^6-thiane-4-carboxamide] |
| 72 | 422 | CN(C(=O)[C@H]1C[C@@H](C(=O)O)C1)[C@@H](c1ccc(N2CCCc3c2cnc2cc(Cl)nn32)cc1)C(F)(F)F [CPD0072934, (cis)-3-{[(1S)-1-(4-{4-chloro-2,3,7,10-tetraazatricyclo[7.4.0.0^2,6]trideca-1(9),3,5,7-tetraen-10-yl}phenyl)-2,2,2-trifluoroethyl](methyl)carbamoyl}cyclobutane-1-carboxylic acid] |
| 339 | 412 | COC(=O)N(C)[C@@H](c1ccc(N2CCCc3c2cnc2cc(Cl)nn32)cc1)C(F)(F)F [CPD0021733, Methyl N-[(1S)-1-(4-{4-chloro-2,3,7,10-tetraazatricyclo[7.4.0.0^2,6]trideca-1(9),3,5,7-tetraen-10-yl}phenyl)-2,2,2-trifluoroethyl]-N-methylcarbamate] |
| 464 | 10000 | O=C(Nc1cnc(-n2nccn2)c(Cl)c1)c1cnn(-c2cccc3ncccc23)c1NCCCCl [CPD0019183] |
| 94 | 143 | COCC1CCN(c2ccc([C@H](N(C)C(=O)C3CCS(=O)(=O)CC3)C(F)(F)F)cc2)c2cnc3cc(Cl)nn3c21 (stereo partly drawn) [CPD0072775] |
| 25 | 80 | C[C@@H]1CCN(c2ccc([C@H](N(C)C(=O)[C@H]3CC[S@@](=N)(=O)CC3)C(F)(F)F)cc2)c2cnc3cc(Cl)nn3c21 (relative stereo) [CPD0073192, (1rel-s,4rel-s)-N-[(1S)-1-{4-[(13rel-R)-4-chloro-13-methyl-2,3,7,10-tetraazatricyclo[7.4.0.0^2,6]trideca-1(9),3,5,7-tetraen-10-yl]phenyl}-2,2,2-trifluoroethyl]-1-imino-N-methyl-1-oxo-1λ^6-thiane-4-carboxamide] |
| 78 | 103 | CN(C(=O)C12CN(C1)S(=O)(=O)C2)[C@@H](c1ccc(N2CCCc3c2cnc2cc(Cl)nn32)cc1)C(F)(F)F [CPD0073087, N-[(1S)-1-(4-{4-chloro-2,3,7,10-tetraazatricyclo[7.4.0.0^2,6]trideca-1(9),3,5,7-tetraen-10-yl}phenyl)-2,2,2-trifluoroethyl]-N-methyl-2,2-dioxo-2λ^6-thia-1-azabicyclo[2.1.1]hexane-4-carboxamide] |
| 256 | 209 | CN(C(=O)CC1CCOC1)[C@@H](c1ccc(N2CCCc3c2cnc2cc(Cl)nn32)cc1)C(F)(F)F (stereo partly drawn) [CPD0021874, N-[(1S)-1-(4-{4-chloro-2,3,7,10-tetraazatricyclo[7.4.0.0^2,6]trideca-1(9),3,5,7-tetraen-10-yl}phenyl)-2,2,2-trifluoroethyl]-N-methyl-2-(oxolan-3-yl)acetamide] |
| 20 | 51 | C[C@H]1CCN(c2ccc([C@H](N(C)C(=O)[C@H]3CC[S@@](=N)(=O)CC3)C(F)(F)F)cc2)c2cnc3cc(Cl)nn3c21 (relative stereo) [CPD0073194, (1rel-s,4rel-s)-N-[(1S)-1-{4-[(13rel-S)-4-chloro-13-methyl-2,3,7,10-tetraazatricyclo[7.4.0.0^2,6]trideca-1(9),3,5,7-tetraen-10-yl]phenyl}-2,2,2-trifluoroethyl]-1-imino-N-methyl-1-oxo-1λ^6-thiane-4-carboxamide] |
| 131 | 85 | CN(C(=O)C1CCS(=O)(=O)C1)[C@@H](c1ccc(N2CCCc3c2cnc2cc(Cl)nn32)cc1)C(F)(F)F (stereo partly drawn) [CPD0021573] |
| 101 | 150 | COC[C@]1(C)CCN(c2ccc([C@H](N(C)C(=O)[C@H]3CC[S@](=N)(=O)CC3)C(F)(F)F)cc2)c2cnc3cc(Cl)nn3c21 (relative stereo) [CPD0073132, (1rel-r,4rel-r)-N-[(1S)-1-[4-[(13rel-R)-4-chloro-13-(methoxymethyl)-13-methyl-2,3,7,10-tetrazatricyclo[7.4.0.0^2,6]trideca-1(9),3,5,7-tetraen-10-yl]phenyl]-2,2,2-trifluoro-ethyl]-1-imino-N-methyl-1-oxo-1λ^6-thiane-4-carboxamide] |
| 166 | 193 | CN(C(=O)C1CCCOC1)[C@@H](c1ccc(N2CCCc3c2cnc2cc(Cl)nn32)cc1)C(F)(F)F (stereo partly drawn) [CPD0021572, N-[(1S)-1-(4-{4-chloro-2,3,7,10-tetraazatricyclo[7.4.0.0^2,6]trideca-1(9),3,5,7-tetraen-10-yl}phenyl)-2,2,2-trifluoroethyl]-N-methyloxane-3-carboxamide] |
| 43 | 101 | CN(C(=O)[C@@H]1CNC(=O)C1)[C@@H](c1ccc(N2CCCc3c2cnc2cc(Cl)nn32)cc1)C(F)(F)F (stereo in doubt) [CPD0073565, (3rel-S)—N-[(1S)-1-(4-{4-chloro-2,3,7,10-tetraazatricyclo[7.4.0.0^2,6]trideca-1(9),3,5,7-tetraen-10-yl}phenyl)-2,2,2-trifluoroethyl]-N-methyl-5-oxopyrrolidine-3-carboxamide] |
| 127 | 237 | Cc1cc(N2CCCc3c2cnc2cc(Cl)nn32)ccc1[C@H](N(C)C(=O)C1CCS(=O)(=O)CC1)C(F)(F)F [CPD0072808, N-[(1S)-1-(4-{4-chloro-2,3,7,10-tetraazatricyclo[7.4.0.0^2,6]trideca-1(9),3,5,7-tetraen-10-yl}-2-methylphenyl)-2,2,2-trifluoroethyl]-N-methyl-1,1-dioxo-1λ^6-thiane-4-carboxamide] |
|  | 162 | C[C@H]1CCN(c2ccc([C@H](N(C)C(=O)[C@H]3CC[S@](=N)(=O)CC3)C(F)(F)F)cc2)c2cnc3cc(F)nn3c21 (relative stereo) [CPD0074553, (1rel s, 4rel s)1-imino-N-methyl-1-oxo-N-[(1S)-2,2,2-trifluoro-1-[4-[(13 rel S)-4-fluoro-13-methyl-2,3,7,10-tetrazatricyclo[7.4.0.0^2,6]trideca-1(9),3,5,7-tetraen-10-yl]phenyl]ethyl]thiane-4-carboxamide] |
|  | 37 | CN(C(=O)C1CCS(=O)(=O)CC1)[C@@H](c1ccc(N2CCC3(CC3)c3c2cnc2cc(Cl)nn32)cc1)C(F)(F)F [CPD0019590, N-[(1S)-1-(4-{4′-chloro-2′,3′,7′, 10′-tetraazaspiro[cyclopropane-1,13′-tricyclo[7.4.0.0^2,6]tridecane]-1′(9′),3′,5′,7′-tetraen-10′-yl}phenyl)-2,2,2-trifluoroethyl]-N-methyl-1,1-dioxo-1λ^6-thiane-4-carboxamide] |
